# Experimental data: patent publication US4740233A, “Substituted 1,2,4-triazolo[1,5-a]-pyrimidine-2-sulfonamides and compositions and methods of controlling undesired vegetation and suppressing the nitrification of ammonium nitrogen in soil” (The Dow Chemical Company, priority 1986, dated 1988)
# What was measured:
# Test in all cases: Preemergent control of plant species
# [1] = tested on: soybean; type: in vivo, Glycine max.; conditions: Glycine max, pre-emergence, 336 h; 0.25 lb/acre; read-out: percent preemergent control
# Summary of the method: (§1)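 Test compositions were applied evenly to the surface of freshly seeded soil beds and kept under greenhouse conditions for two weeks. Percent control reflects growth reduction compared with water-treated beds of the same species.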
# [2] = tested on: cotton; type: in vivo, Gossypium spp.; conditions: Gossypium hirsutum, pre-emergence, 336 h; 0.25 lb/acre; read-out: percent preemergent control
# Summary of the method: as §1
# [3] = tested on: rice; type: in vivo, Oryza sativa; conditions: Oryza sativa, pre-emergence, 336 h; 0.25 lb/acre; read-out: percent preemergent control
# Summary of the method: as §1
# [4] = tested on: wild oats; type: in vivo; conditions: Avena fatua, pre-emergence, 336 h; 0.25 lb/acre; read-out: percent preemergent control
# Protocol: The seeds of various species of plants were planted in beds of good agricultural soil in a greenhouse. A number of compositions of the present invention, generally in the nature of an aqueous emulsion, were applied at rates listed in the table so as to deposit a predetermined amount of active ingredients uniformly throughout the surface of the bed. Another seed bed was treated only with water to serve as a control. After treatment the seed beds were maintained for two weeks under greenhouse conditions conducive for good plant growth and watered as necessary. Control refers to the reduction in growth compared to the observed results of the same untreated species.
# [5] = tested on: corn; type: in vivo, Zea mays; conditions: Zea mays, pre-emergence, 336 h; 0.25 lb/acre; read-out: percent preemergent control
# Summary of the method: as §1
# [6] = tested on: annual morning glory; type: in vivo, Ipomoea spp.; conditions: Ipomoea, pre-emergence, 336 h; 0.25 lb/acre; read-out: percent preemergent control
# Summary of the method: as §1
# [7] = tested on: rape; type: in vivo, Brassica napus; conditions: Brassica napus, pre-emergence, 336 h; 0.25 lb/acre; read-out: percent preemergent control
# Summary of the method: as §1
# [8] = tested on: yellow foxtail; type: in vivo, Setaria lutescens; conditions: Setaria, pre-emergence, 336 h; 0.25 lb/acre; read-out: percent preemergent control
# Summary of the method: as §1
# [9] = tested on: barnyardgrass; type: in vivo, Echinochloa crusgalli; conditions: Echinochloa crus-galli, pre-emergence, 336 h; 0.25 lb/acre; read-out: percent preemergent control
# Summary of the method: as §1
# [10] = tested on: sugar beet; type: in vivo, Beta saccharifera; conditions: Beta vulgaris, pre-emergence, 336 h; 0.25 lb/acre; read-out: percent preemergent control
# Summary of the method: as §1
# [11] = tested on: johnson grass; type: in vivo, Sorghum halepense; conditions: Sorghum halepense, pre-emergence, 336 h; 0.25 lb/acre; read-out: percent preemergent control
# Summary of the method: as §1
# [12] = tested on: velvetleaf; type: in vivo, Abutilon theophrasti; conditions: Abutilon theophrasti, pre-emergence, 336 h; 0.25 lb/acre; read-out: percent preemergent control
# Summary of the method: as §1
# [13] = tested on: jimsonweed; type: in vivo, Datura stramonium; conditions: Datura stramonium, pre-emergence, 336 h; 0.25 lb/acre; read-out: percent preemergent control
# Summary of the method: as §1
# [14] = tested on: yellow nutsedge; type: in vivo, Cyperus esculentus; conditions: Cyperus, pre-emergence, 336 h; 0.25 lb/acre; read-out: percent preemergent control
# Summary of the method: as §1
# [15] = tested on: wheat; type: in vivo, Triticum aestivum; conditions: Triticum aestivum, pre-emergence, 336 h; 0.25 lb/acre; read-out: percent preemergent control
# Summary of the method: as §1
# [16] = tested on: sorghum; type: in vivo, Sorghum vulgare; conditions: Sorghum, pre-emergence, 336 h; 0.25 lb/acre; read-out: percent preemergent control
# Summary of the method: as §1
SMILES,plant injury at 280.212 g/ha [1] [%],plant injury at 280.212 g/ha [2] [%],plant injury at 280.212 g/ha [3] [%],pest or weed control at 280.212 g/ha [4] [%],plant injury at 280.212 g/ha [5] [%],pest or weed control at 280.212 g/ha [6] [%],plant injury at 280.212 g/ha [7] [%],pest or weed control at 280.212 g/ha [8] [%],pest or weed control at 280.212 g/ha [9] [%],plant injury at 280.212 g/ha [10] [%],pest or weed control at 280.212 g/ha [11] [%],pest or weed control at 280.212 g/ha [12] [%],pest or weed control at 280.212 g/ha [13] [%],pest or weed control at 280.212 g/ha [14] [%],plant injury at 280.212 g/ha [15] [%],plant injury at 280.212 g/ha [16] [%]
Cc1ccn2nc(S(=O)(=O)N(C(=O)C3CCCCC3)c3c(F)cccc3F)nc2n1 [Compound 291],20,100,100,70,55,90,100,100,100,100,100,100,100,100,100,100
Cc1ccn2nc(S(=O)(=O)N(C(=O)CC(C)C)c3c(F)cccc3F)nc2n1 [Compound 284],20,100,100,90,85,80,100,100,100,100,100,100,100,100,100,100
"COC(=O)c1ccc(C)c(NS(=O)(=O)c2nc3nc(C)cc(C)n3n2)c1Br [Compound 86, methyl 3-amino-2-bromo-4-methyl-N-(5,7-dimethyl-1,2,4-triazolo[1,5-a]pyrimidine-2-sulfonyl)benzoate]",20,0,0,0,0,0,100,0,0,100,0,0,100,0,0,0
Cc1cnc2nc(S(=O)(=O)Nc3c(Cl)ccc(C)c3Cl)nn2c1 [Compound 194],70,90,0,0,0,90,100,0,0,100,0,90,95,95,0,30
COC(=O)c1cccc(C)c1NS(=O)(=O)c1nc2nc(OC)c(C)cn2n1 [Compound 216],70,100,90,100,100,90,20,100,75,100,100,100,100,70,100,100
Cc1ccn2nc(S(=O)(=O)N(C(=O)c3ccccc3)c3c(F)cccc3F)nc2n1 [Compound 290],70,100,100,70,90,100,100,100,100,100,100,100,100,80,95,100
COC(=O)c1cccc(F)c1NS(=O)(=O)c1nc2nc(OC)c(C)cn2n1 [Compound 215],100,100,100,100,100,100,100,100,100,100,100,100,100,100,100,100
CC(=O)c1cccc(C)c1NS(=O)(=O)c1nc2nc(C)ccn2n1 [Compound 166],80,100,40,30,10,95,100,80,80,100,20,100,90,100,20,80
CCOCCOC(=O)c1cccc(C)c1NS(=O)(=O)c1nc2nc(C)cc(C)n2n1 [Compound 72],90,40,70,90,90,10,100,50,30,90,50,60,100,100,90,80
CCOC(=O)N(c1c(Cl)cccc1Cl)S(=O)(=O)c1nc2nc(C)ccn2n1 [Compound 272],0,80,30,0,0,40,100,90,60,100,40,100,90,100,0,40
Cc1ccn2nc(S(=O)(=O)Nc3c(C)cccc3C#N)nc2n1 [Compound 165],10,90,0,0,0,60,75,90,60,90,0,30,90,90,0,60
